What all share (type): physicochemical
Series [1] in a line: Physical appearance and durometer mechanical properties of drug-loaded silicone polymer matrix test samples. An excerpt: To test the loading capacity of a silicone elastomer polymer matrix for a prostaglandin analogue, polymer matrix with different amounts and types of a prostaglandin analogue were made and the physical and mechanical properties of the resulting polymerized drug-loaded matrix were characterized (Tables 1-3). These polymer matrix test samples were made by mixing together a prostaglandin analogue, a liquid cyclic vinyl siloxane elastomer, a crosslinker, and a catalyst using a high-speed mixer and then heated the capped container at 70° C. for 24 hours to cure the mixture. A filler, such as a fumed silica, was also used to provide sufficient mechanical strength to the polymerized matrix. In addition, an inhibitor was used to slow the crosslinking reaction to a workable rate. The resulting thin-disc-shaped drug-loaded polymer matrix was allowed to cool to room temperature and then placed in 4° C. for 24 hours to increase stiffness of the material. The physical appearance of each drug-loaded polymer matrix test sample was examined visually and its mechanical properties analyzed using a durometer.

The nature of series [2]: Higuchi equation analysis of drug release (cumulative release vs square root of time). As to conditions: coated drug-loaded silicone polymer matrices. The method, then: In order to ascertain whether the mechanism of drug release was based on diffusion, data obtained from various coated silicone polymer matrices were analyzed using the Higuchi equation. This analysis determines the degree of proportionality between the cumulative amount of drug released and the square root of time (SQRT). […] As exemplified FIG. 10, data is plotted as the square root of time taken on the x-axis and the cumulative percentage of drug release on the y-axis.

A short description of series [3]: In vitro drug release from drug-loaded silicone polymer matrix in PBS pH 7.4 at 37° C., RPHPLC. Particulars: uncoated silicone polymer matrix loaded with 10% latanoprost, FIG. 5. The method, then:
To test the controlled release properties of the disclosed drug-loaded silicone polymer matrices, the effects of a coating were examined. In these experiments, test samples were made as described in Example 1 to produce thin-disc-shaped drug-loaded polymer matrix. From this material, test samples were prepared by 1) cutting out rectangular polygons of about 3 mm length, about 1 mm width and about 1 mm height were cut from polymerized drug-loaded material; or 2) cutting out cylindrical plugs of about 3 mm length and having a diameter of about 0.5 mm to about 1 mm. The weight of the test samples was in the range of about 0.1 mg to about 4 mg.
These cut test samples were then coated using one of three procedures. […]
To examine the drug release properties of a test sample, each sample was placed in 2 mL Eppendorf tube containing 1.5 mL of Phosphate Buffered Saline, pH 7.4 (PBS). […] An aliquot of the removed PBS was then analyzed by reversed phase HPLC (RPHPLC) to determine the amount of drug released from the test sample during the incubation period. […] Peak detection and quantitation were determined by establishing a calibration curve using known amounts of each drug tested and the amount of drug present in the test sample aliquot interpolated from this calibration curve using ChemStation software.

The nature of series [4]: Korsmeyer-Peppas analysis of drug release (log percent released vs log time). The method, then:
To confirm the results obtained based on the Higuchi equation analysis, the data above was also analyzed using the Korsmeyer-Peppas plot, which evaluates the mechanism of drug release by plotting the log of percent drug released over the log time in hours. If n equals 0.45, then Fickian diffusion is indicated for a cylinder (0.42 for cylinder of low aspect ratio). […] As exemplified FIG. 11, data is plotted as the log of cumulative percent drug released on the y-axis and the log time in hours on the x-axis.

Series [5] can be described thus: Chemical stability of prostaglandin analogues in PBS, RPHPLC. As to conditions: PBS at pH 4, 7 and 10 and at 4° C., 33° C. and 50° C. The protocol: The chemical stability of prostaglandin analogues was also examined. In these experiments, a prostaglandin analogue was incubated in phospho-buffered saline (PBS) at pH 4, 7 and 10 and at 4° C., 33° C. and 50° C. representing long term storage, eye temperature and accelerate temperature conditions respectively. Analyses were performed by RPHPLC as described in Example 2, noting any hydrolysis products formed. […] This stability is most likely due to the amide linkage in bimatoprost which is much more hydrolytically stable than the ester linkage in latanoprost and travoprost.

Series [6] can be described thus: Release from post-loaded travoprost section of the implantable device. Particulars: post loaded 3 mm section, uncoated, at 38 days. The protocol:
A central section of a self-retaining implantable drug delivery device disclosed herein was loaded with travoprost by cutting a 3 mm section of the device and then placed into 0.200 ml of hexanes for 3 hours. Following this period, the self-retaining implantable drug delivery device was placed immediately into 0.050 mL of a travoprost stock solution 25 mg/mL in ethanol and allowed to stand overnight. The following day, this section was washed sequentially by dipping into a water bath, followed by a 10% acetonitrile bath. It was dried at 80 C and set to release the following day. The section was allowed to release over a period of 38 days. The loading was determined to be approximately 13 mcg. […] This release profile is predicted by the Higuchi mechanism. This type of loading procedure we term post loading. The loaded section is coated with a poly(p-xylylene) polymer and two tiny holes are placed completely through the section. The section is then molded together with the two flanking sections of the stent to form the final product. The release from this modified stent follows a near zero order release in vitro and in vivo in preclinical animal models and clinical studies.

Where [7] appears, read: Drug Loading 5%, coated drug-loaded silicone polymer matrices.
Where [8] appears, read: Drug Loading 10%, coated drug-loaded silicone polymer matrices.
Setting [9] is: Drug Loading 15%, coated drug-loaded silicone polymer matrices.
The mark [10] stands for this setting: Drug Loading 20%, coated drug-loaded silicone polymer matrices.
Where [11] appears, read: Drug Loading 2.5%, coated drug-loaded silicone polymer matrices.

Take `CC(C)OC(=O)CCC/C=C\C[C@@H]1[C@@H](CC[C@@H](O)CCc2ccccc2)[C@H](O)C[C@@H]1O` [Latanoprost, latanoprost]: the “amount that would not produce a satisfactory drug-loaded silicone polymer matrix” value in series [1] is reported as not below 25%. For the same compound, the “physical appearance of silicone polymer matrix” value (“physical appearance” for short) in series [1] (25% test sample) was “exhibited more elasticity but had a surface with tacky attributes and a consistency that was not fully homogeneous”. In addition, the “Average Linear Regression r^2 Value (Higuchi)” value in series [2] (Drug Loading 5%) came to 0.964; in series [2] (Drug Loading 10%), 0.983; in series [2] (Drug Loading 15%), 0.990; in series [2] (Drug Loading 20%), 0.990. In series [3], the release profile result is “rapid release of the drug over the first five days, which then tapers off and by day 12 shows no further significant release”. Further, the “Average n Values (Korsmeyer-Peppas)” value in series [4] (setting [7]) is reported as 0.504±; in series [4] (setting [8]), 0.501±; in series [4] (setting [9]) it was 0.712±; in series [4] (setting [10]) it was 1.200±; in series [4] (Mean over drug loadings), 0.57 ± 0.16. For the same compound, the “chemical stability (hydrolysis)” value in series [5] was “travoprost was significantly more stable than latanoprost”.
Turning to `CCNC(=O)CCC/C=C\C[C@@H]1[C@@H](/C=C/[C@@H](O)CCc2ccccc2)[C@H](O)C[C@@H]1O` [Bimatoprost, bimatoprost], the “amount that would not produce a satisfactory drug-loaded silicone polymer matrix” value in series [1] is listed as not below 20%. Moreover, the “physical appearance” value in series [1] (20% test sample) was “brittle and contained clumps of unincorporated components from the mixture”. Further, the “Average Linear Regression r^2 Value (Higuchi)” value in series [2] (Drug Loading 1%) was found to be 0.992; in series [2] (Drug Loading 2.5%), 0.995; in series [2] (Drug Loading 5%), 0.997; in series [2] (Drug Loading 10%) it was 0.988; in series [2] (Drug Loading 15%), 0.994; in series [2] (Drug Loading 20%), 0.972. Further, the “Average n Values (Korsmeyer-Peppas)” value was 0.326± in series [4] (Drug Loading 1%, coated drug-loaded silicone polymer matrices); 0.372± in series [4] (setting [11]); 0.411± in series [4] (setting [7]); 0.377± in series [4] (setting [8]); 0.380± in series [4] (setting [9]); 0.601± in series [4] (setting [10]). The “Average n Values (Korsmeyer-Peppas)” value in series [4] (Mean over drug loadings) was 0.37 ± 0.08. Besides, the “chemical stability (hydrolysis)” value in series [5] was “the most stable”.
`CC(C)OC(=O)CCC/C=C\C[C@@H]1[C@@H](/C=C/[C@@H](O)COc2cccc(C(F)(F)F)c2)[C@H](O)C[C@@H]1O` [Travoprost, travoprost]: the “amount that would not produce a satisfactory drug-loaded silicone polymer matrix” value in series [1] was not below 15%. Moreover, in series [1] (15% and 20% test samples), the “physical appearance” value is “exhibited more elasticity but had surfaces with tacky attributes and a consistency that was not fully homogeneous”. Also, the results for the “Average Linear Regression r^2 Value (Higuchi)” value in series [2] (Drug Loading 2.5%), in series [2] (Drug Loading 5%) and in series [2] (Drug Loading 10%) were 0.976, 0.972 and 0.941, respectively. Also, the “Average n Values (Korsmeyer-Peppas)” value in series [4] (setting [11]) is recorded as 0.543±; in series [4] (setting [7]), 0.507±; in series [4] (setting [8]), 0.453±; in series [4] (Mean over drug loadings), 0.50 ± 0.09. In addition, the “chemical stability (hydrolysis)” value in series [5] was “had the requisite stability”. Also, in series [6], the amount released stood at 99%.

These data come from US12268632B2, “Self-retaining implantable drug delivery device” (GoldenBiotech, LLC, priority 2018, dated 2025).
